Data from PMC8154566, “Scaffold-Hopping Strategy on a Series of Proteasome Inhibitors Led to a Preclinical Candidate for the Treatment of Visceral Leishmaniasis” (Journal of Medicinal Chemistry, 2021).
In brackets after ≈: the same amount, converted by molar mass. Where two headings read alike, the source gives them in different places.

How the values were obtained:
L. donovani amastigotes = experiment: INMAC assay: intramacrophage L. donovani in differentiated THP-1 cells; assay type: cell-based, Leishmania donovani; conditions: for EC50 / IC50: Leishmania donovani; for EC50: THP-1; for loss of potency: INMAC, relative to compound 4; for IC50: THP-1, read-out: LdInMac pIC50 (converted)
Experimental: (§1) Intramacrophage L. donovani Assay. This assay was conducted as previously described, except for […]

THP-1 cells = experiment: THP-1 host cell read-out of the INMAC assay; assay type: cell-based; conditions: for EC50 / IC50: Homo sapiens
Experimental: as §1

[1] = Kinetic aqueous solubility by CLND; assay type: physicochemical
Experimental: We had successfully used these criteria in the hit to lead stage to identify compounds for in vivo proof-of-concept studies in another program, which subsequently led to the identification of preclinical candidate DDD853651/GSK3186899 active against CRK12.[7] […] A pharmacokinetic (PK) study was thus performed, dosed at 10 mg/kg po and 3 mg/kg iv. […] With the limited knowledge of the PK/PD drivers for the treatment of VL, we considered this to be a suitable profile for the progression of 4 into a previously reported mouse efficacy model of VL,[6],[7],[17],[18] where it was dosed twice daily at 50 mg/kg ip in order to further maximize exposure and give the best chance of achieving proof-of-concept.
(§2) Intramacrophage L. donovani Assay. This assay was conducted as previously described, except for compound exposure time, which was 96 h instead of 72 h.4
(§3) Intrinsic Clearance. This assay was conducted as previously described.5 Aqueous Solubility. This assay was conducted as previously described.6
(§4) FaSSIF Solublity. This assay was conducted as previously described.5,7
(§5) In vivo Mouse Efficacy Studies. In vivo studies were carried out as previously described, with minor modifications.7 Briefly: Control drug used was Miltefosine (30 mg/kg orally, twice daily for 5 days), vehicle used was 10% (v/v) dimethyl sulfoxide (DMSO), 40% polyethylene glycol 400, and 50% deionized water (10 Ml/kg orally, twice daily for 5 days) and mice were treated with test compound intraperitoneally (50 mg/kg twice daily for 5 days). 5
(§6) All regulated procedures on living animals were carried out under the authority of a project license issued by the Home Office under the Animals (Scientific Procedures) Act 1986, as amended in 2012 (and in compliance with EU Directive EU/2010/63). Infected animals had access to food and water ad libitum and were housed under a 12 hour light/dark photoperiod. Animals used in these experiments were female NMRI and Balb/c mice (Harlan, UK).
(§7) Test compound DDD01008714 was dosed orally (P.O.) at 10 mg free base/kg (dose volume 10 mL/kg; dose vehicle: 10% (vol/vol) dimethyl sulfoxide (DMSO), 40% polyethylene glycol 400 (PEG400) and 50% deionized water) to female NMRI mice (n = 3) or intravenously (I.V.) at 3 mg free base/kg (dose volume 5 mL/kg; dose vehicle: 10% (vol/vol) dimethyl sulfoxide (DMSO) and 90% Saline) to female Balb/c mice (n = 3). Blood samples (10 μL) where taken from the tail vein of […]

[2] = FaSSIF (fasted state simulated intestinal fluid) solubility; assay type: physicochemical
Experimental: as §2, §3, §4, §5, §6, §7

[3] = Mouse liver microsomal intrinsic clearance; assay type: in vitro ADME; conditions: for Mouse CLi: mouse liver microsomes; for Cli (mouse, ml/min/g): supplementary csv
Experimental: as §2, §3, §4, §5, §6, §7

[4] = Table 6, at least three replicates, SD ≤0.4, read-out: INMAC pEC50 (converted)
[5] = THP-1, Table 6, read-out: THP-1 pEC50 (converted)
[6] = THP-1, supplementary csv, read-out: THP1 pIC50 (converted)
[7] = Table 6, kinetic, CLND, read-out: Aq. solubility
[8] = Table 5, at least three replicates, SD ≤0.4, read-out: INMAC pEC50 (converted)
[9] = THP-1, Table 5, read-out: THP-1 pEC50 (converted)
[10] = Table 5, kinetic, CLND, read-out: Aq. solubility
[11] = supplementary csv, read-out: Aqueous Solubility
[12] = Table 2, at least three replicates, SD ≤0.4, read-out: INMAC (pEC50) (converted)
[13] = THP-1, Table 2, read-out: THP-1 (pEC50) (converted)
[14] = Table 2, kinetic, CLND, read-out: Aq. solubility

| Molecule | EC50 (L. donovani amastigotes; [4]) [µM] | EC50 (THP-1 cells; [5]) [µM] | IC50 (THP-1 cells; [6]) [µM] | solubility [1, 7] [µM] | solubility at 4 h ([2]; pH 6.5, Table 6) [µM] | solubility ([2]; supplementary csv) [µM] | Mouse CLi ([3]; Table 6) [mL/min/g] | Cli (mouse, ml/min/g) [3] [mL/min/g] | solubility [1, 11] [µM] | loss of potency (L. donovani amastigotes) [fold] | IC50 (L. donovani amastigotes) [µM] | EC50 (L. donovani amastigotes; [12]) [µM] | EC50 (THP-1 cells; [13]) [µM] | solubility [1, 14] [µM] | Mouse CLi ([3]; Table 2) [mL/min/g] | also measured |
| --- | --- | --- | --- | --- | --- | --- | --- | --- | --- | --- | --- | --- | --- | --- | --- | --- |
| O=C(Nc1ccc(F)c(-c2ccn3c(-c4ccccn4)cnc3n2)c1)N1CCCC1 [Compound 29, N-(4-Fluoro-3-(3-(pyridin-2-yl)imidazo[1,2-a]pyrimidin-7-yl)phenyl)pyrrolidine-1-carboxamide] | 0.398 | > 50.1 | > 50.1 | 74 (≈ 29.8 µg/mL) | 273 (≈ 110 µg/mL) | 270 (≈ 109 µg/mL) | 1.8 | 1.8 |  |  |  |  |  |  |  |  |
| O=C(Nc1ccc(F)c(-c2nc3ncc(N4CCOCC4)cn3n2)c1)N1CCCC1 [Compound 25, N-(4-Fluoro-3-(6-morpholino-[1,2,4]triazolo[1,5-a]pyrimidin-2-yl)phenyl)pyrrolidine-1-carboxamide] |  |  |  |  |  | 73 (≈ 30 µg/mL) |  | 0.5 | 400 (≈ 165 µg/mL) |  |  |  |  |  |  | EC50 (L. donovani amastigotes; [8]): 0.631 µM; IC50 (THP-1 cells; THP-1, read-out: THP1 pIC50 (converted)): > 50.1 µM; EC50 (THP-1 cells; [9]): > 50.1 µM; solubility [1, 10]: 354 µM (≈ 146 µg/mL); solubility at 4 h ([2]; pH 6.5, Table 5): 74 µM (≈ 30.4 µg/mL); Mouse CLi ([3]; Table 5): <0.5 mL/min/g |
| CC1CN(c2cnc3nc(-c4cc(NC(=O)N5CCCC5)ccc4F)ccn23)CCO1 (stereo not drawn) [Compound 38, N-(4-Fluoro-3-(3-(2-methylmorpholino)imidazo[1,2-a]pyrimidin-7-yl)phenyl)pyrrolidine-1-carboxamide] | 0.794 | 50.1 | 50.1 | 248 (≈ 105 µg/mL) | 252 (≈ 107 µg/mL) | 250 (≈ 106 µg/mL) | 1.7 | 1.7 | 250 (≈ 106 µg/mL) |  |  |  |  |  |  |  |
| O=C(Nc1ccc(F)c(-c2ccn3c(N4CCC5(CCOC5)C4)cnc3n2)c1)N1CCCC1 (stereo not drawn) [Compound 44, N-(3-(3-(2-Oxa-7-azaspiro[4.4]nonan-7-yl)imidazo[1,2-a]pyrimidin-7-yl)-4-fluorophenyl)pyrrolidine-1-carboxamide] | 1.26 | 50.1 | 50.1 | 339 (≈ 153 µg/mL) | 852 (≈ 384 µg/mL) | 850 (≈ 383 µg/mL) | 3.7 | 3.7 | 340 (≈ 153 µg/mL) |  |  |  |  |  |  |  |
| O=C(Nc1cnnc(-c2cn3cc(N4CCOCC4)cnc3n2)c1)N1CCCC1 [Compound 13, N-(6-(6-Morpholinoimidazo[1,2-a]pyrimidin-2-yl)pyridazin-4-yl)pyrrolidine-1-carboxamide] |  |  | > 50.1 |  |  | 290 (≈ 114 µg/mL) |  | <0.5 | 360 (≈ 142 µg/mL) | > 10 | > 50.1 | > 50.1 | > 50.1 | 355 (≈ 140 µg/mL) | <0.5 | solubility ([2]; Table 2): > 100 µM; solubility at 4 h ([2]; pH 6.5, Table 2): 286 µM (≈ 113 µg/mL) |
| (S)-N-(4-Fluoro-3-(3-(3-methylmorpholino)imidazo[1,2-a]pyrimidin-7-yl)phenyl)pyrrolidine-1-carboxamide [Compound 40] |  |  |  | 345 |  |  | 1.8 | 1.8 |  |  |  |  |  |  |  | INMAC pEC50 (L. donovani amastigotes; Table 6, at least three replicates, SD ≤0.4): 6.0; LdInMac pIC50 (L. donovani amastigotes; supplementary csv): 6; THP-1 pEC50 (THP-1 cells; Table 6): 4.3; THP1 pIC50 (THP-1 cells; supplementary csv): 4.3; Aqueous Solubility ([1]; supplementary csv): 350 µM; FaSSIF solubility ([2]; Table 6): 1,578 μM; FaSSIF solubility ([2]; supplementary csv): >1000 µM |
| CC1(C)COCCN1c1cnc2nc(-c3cc(NC(=O)N4CCCC4)ccc3F)ccn12 [Compound 43, N-(3-(3-(3,3-Dimethylmorpholino)imidazo[1,2-a]pyrimidin-7-yl)-4-fluorophenyl)pyrrolidine-1-carboxamide] | 0.794 | 50.1 | 50.1 | 210 (≈ 92.1 µg/mL) | 627 (≈ 275 µg/mL) | 630 (≈ 276 µg/mL) | 6.0 | 6 |  |  |  |  |  |  |  |  |
| O=C(Nc1ccc(F)c(-c2cc3cc(N4CCOCC4)cnn3n2)c1)N1CCCC1 [Compound 26, N-(4-Fluoro-3-(5-morpholinopyrazolo[1,5-b]pyridazin-2-yl)phenyl)pyrrolidine-1-carboxamide] |  |  | > 50.1 |  |  |  |  | 1.7 |  |  |  |  |  |  |  | EC50 (L. donovani amastigotes; [8]): 0.158 µM; EC50 (THP-1 cells; [9]): > 50.1 µM; solubility [1, 10]: 51 µM (≈ 20.9 µg/mL); solubility at 4 h ([2]; pH 6.5, Table 5): 12 µM (≈ 4.93 µg/mL); Mouse CLi ([3]; Table 5): 1.7 mL/min/g |
| COc1ccc(-c2cn3cc(N4CCOCC4)cnc3n2)cc1NC(=O)N1CCCC1 [Compound 8, N-(2-Methoxy-5-(6-morpholinoimidazo[1,2-a]pyrimidin-2-yl)phenyl)pyrrolidine-1-carboxamide] |  |  | > 50.1 |  |  | 270 (≈ 114 µg/mL) |  | 1.4 |  | > 10 |  | 20 | > 50.1 | ≥ 380 | 1.4 | solubility ([2]; Table 2): > 100 µM; solubility at 4 h ([2]; pH 6.5, Table 2): 265 µM (≈ 112 µg/mL) |
| O=C(Nc1nccc(-c2cn3cc(N4CCOCC4)cnc3n2)n1)N1CCCC1 [Compound 12, N-(4-(6-Morpholinoimidazo[1,2-a]pyrimidin-2-yl)pyrimidin-2-yl)pyrrolidine-1-carboxamide] |  |  | > 50.1 |  |  | > 1000 |  | <0.5 |  | > 10 | > 50.1 | > 50.1 | > 50.1 | ≥ 470 | <0.5 |  |
| CC(C)Cc1cnc2nc(-c3cc(NC(=O)N4CCCC4)ccc3F)ccn12 [Compound 31, N-(4-Fluoro-3-(3-isobutylimidazo[1,2-a]pyrimidin-7-yl)phenyl)pyrrolidine-1-carboxamide] | 0.501 | 63.1 | 63.1 | 182 (≈ 69.4 µg/mL) | 178 (≈ 67.9 µg/mL) | 180 (≈ 68.7 µg/mL) | 15 | 15 | 180 (≈ 68.7 µg/mL) |  |  |  |  |  |  |  |
| O=C(Nc1cncc(-c2cn3cc(N4CCOCC4)cnc3n2)n1)N1CCCC1 [Compound 11, N-(6-(6-Morpholinoimidazo[1,2-a]pyrimidin-2-yl)pyrazin-2-yl)pyrrolidine-1-carboxamide] |  |  | > 50.1 |  |  | 210 (≈ 82.8 µg/mL) |  | <0.5 | ≥ 400 | > 10 | > 50.1 | > 50.1 | > 50.1 | ≥ 396 | <0.5 | solubility ([2]; Table 2): > 100 µM; solubility at 4 h ([2]; pH 6.5, Table 2): 213 µM (≈ 84 µg/mL) |
| O=C(Nc1ccc(F)c(-c2ccn3c(N4CCNCC4)cnc3n2)c1)N1CCCC1 [Compound 35, N-(4-Fluoro-3-(3-(piperazin-1-yl)imidazo[1,2-a]pyrimidin-7-yl)phenyl)pyrrolidine-1-carboxamide] | > 50.1 | > 50.1 | > 50.1 | ≥ 333 | 5 (≈ 2.05 µg/mL) |  | <0.5 | <0.5 | ≥ 330 |  | > 50.1 |  |  |  |  |  |
| O=C(Nc1cccc(-c2cn3cc(N4CCOCC4)cnc3n2)n1)N1CCCC1 [Compound 9, N-(6-(6-Morpholinoimidazo[1,2-a]pyrimidin-2-yl)pyridin-2-yl)pyrrolidine-1-carboxamide] |  |  | > 50.1 |  |  | 81 (≈ 31.9 µg/mL) |  | <0.5 | ≥ 480 | > 10 | > 50.1 | > 50.1 | > 50.1 | ≥ 476 | <0.5 | solubility at 4 h ([2]; pH 6.5, Table 2): 80 µM (≈ 31.5 µg/mL) |
